Reference: patent US11980598B2, “N-(2-(substituted-naphth-1-yl)ethyl) substituted amide compound, preparation and uses thereof” (BEIJING GREATWAY PHARMACEUTICAL TECHNOLOGY CO., LTD., priority 2017, dated 2024)

Key:
[1] = In vitro metabolism study, human liver microsomal incubation system; assay type: in vitro ADME
Procedure: TSQ Quantum liquid chromatography-mass spectrometer (LC/MS/MS) from Finnigan Inc, USA, chromatography column: TSKgel Amide-80 column (2.0 mm I.D.×100 mm, 5 μm); mobile phase: acetonitrile-water-formic acid (50:50:0.1); flow rate: 0.2 mL/min; injection volume: 5 μL; column temperature: room temperature. Ionization source is electrospray ionization (ESI) with 4.8 KV of spray voltage; capillary temperature (TEM): 300° C.; sheath gas: N2, flow rate: 10 psi; auxiliary gas: N2, flow rate: 1 psi; collision gas (CID): Ar at a pressure of 1.5 mTorr. The mass spectrometry scanning method was selective reaction monitoring (SRM) and detected by positive ion method. The internal standard was a […] solution of aconitine in acetonitrile, the minimum limit of quantification was 5 ng/mL, and the correlation coefficient was >0.99.
Approximately 10 mg of each sample to be tested was accurately weighed, dissolved in 0.1 mL of DMSO, and serially diluted with purified water to a 10 μM, 1 μM standard stock solution. An ice bath was operated and the incubation system for detection was formulated according to Table 4. NADPH was added to the incubation system to start the reaction, and then 50 μL was immediately added to 150 μL acetonitrile as a zero-time sample and a 1 μM standard curve sample. Another 1 μM standard stock solution was added to the incubation system, and then 50 μL was immediately added to 150 μL acetonitrile as a 0.1 μM standard curve sample. […] Each sample was shaken, and centrifuged at 18000 g for 10 min. The supernatant was taken for LC/MS/MS injection and determination.

Kunming mice [2] = assay: Tail suspension test (TST) in mice; assay type: in vivo, mouse; conditions: 10 mg/kg intraperitoneal, 3 days, last 4 of 6 min
Procedure: (§1) Animals: Kunming mice, male, body weight 18-22 g, SPF grade; SD rats, male, body weight 150-180 g, SPF grade. The test was carried out after acclimatization, and the animal was fasted for 12 hours before the test.
(§2) All drugs for the test were suspended and dispersed in a 1% aqueous solution of hydroxypropyl methylcellulose (HPMC), and shaken well before use. […] The doses for administration were all 10 mg/kg. For the concentration and volume for administration, see J Psychiatry Neurosci 2004; 29(2):126-133. The mice were intraperitoneally administered in a volume of 0.5 mL/20 g; and the rats were administered by i.g. in a volume of 2 mL/100 g.
Mice were randomly divided into groups according to weight balance. Intraperitoneal injection was administered for three consecutive days, once a day, and the tail suspension test were performed 30 minutes after the third day. The tail suspension box was 25×25×35 cm, and a small clip was connected with a rope at the center of the top plate. An adhesive tape was stuck to the tail of the mouse 2 cm away from the tail end, and the adhesive tape was clamped with the clip to make the mouse in an inverted position. The duration of immobility was recorded during the last 4 minutes of total 6 minutes observed.

[3] = molecular target: human MT1 receptor membrane protein (Homo sapiens (Human), UniProt P48039); assay: MT1 receptor binding test ([3H]-Melotonin competition); conditions: for MT1 binding ratio (I %): prescreening, 10^−5 M
Procedure: (§3) The receptors included a MT1/MT2 receptor and a 5-HT2C receptor. The test was divided into two parts: prescreening and rescreening. The results of prescreening were expressed as the percentage of binding, and the results of rescreening were expressed as the IC50 value (in M, i.e., mol/L).
(§4) (3) Tris-HCl buffer formulation: 50 mM Tris-HCl Buffer, 1 mM EDTA, 5 mM MgCl2, 0.1% NaN3, and then a certain proportion of PMSF was added to make pH 7.4.
(§5) (4) The example compound to be tested was dissolved in DMSO and formulated as a stock solution of 10^−2 M, and then diluted with distilled water to a concentration gradient of […]. The prescreening of the MT receptor binding test was performed at the concentration of 10^−5 M; the prescreening of the 5-HT2C receptor binding test was performed at the concentrations of 10^−5 and 10^−7 M.
(§6) The statistical analysis was performed using GraphPad Prism 5.0 software. The formula for receptor binding test was: inhibition (%)=[(total CPM of binding−CPM of tube with drug)/(total CPM of binding−non-specific CPM)]×100%, wherein CPM was count of a radioactive intensity.
(§7) 10 μL of receptor membrane protein MT1 or MT2 was added to all the tubes. In non-specific binding tubes, 50 μL of a corresponding unlabeled ligand Ago at a concentration of 10^4 M was added to a final concentration of 10 μM, and pre-reacted for 30 minutes. In test tubes, 30 μL of test drug (MT1: a concentration of 10^4-10^−10 M, MT2: a concentration of […]) was added, respectively; all tubes were added with 40 μL [^3H]-Melotonin, respectively. […] The filter paper was taken out and dried by baking, and then placed in a scintillation bottle. 1 mL of the scintillation liquid was added, and the radioactive intensity was measured by a liquid scintillation counter.

SD rats = assay: Forced rat swimming test; assay type: in vivo; conditions: 10 mg/kg i.g., 3 days, last 5 of 6 min
Procedure: as §1, §2
Rats were randomly divided into groups according to weight balance. Rats were administered by i.g. for three consecutive days, once a day. One hour after administration on the third day, the forced swimming test was performed. The rats were placed in a round glass jar with a height of 40 cm, an inner diameter of 18 cm, a water depth of 23 cm, and a water temperature of 25° C. The rats were allowed to swim for 6 minutes, and the accumulated immobility time in the last 5 minutes was recorded.

[4] = molecular target: human MT2 receptor membrane protein (Homo sapiens (Human), UniProt P49286); assay: MT2 receptor binding test ([3H]-Melotonin competition); conditions: for MT2 binding ratio (I %): prescreening, 10^−5 M
Procedure: as §3, §4, §5, §6, §7

Kunming mice [5] = assay: Forced mouse swimming test; assay type: in vivo; conditions: 10 mg/kg intraperitoneal, 3 days, last 4 of 6 min
Procedure: as §1, §2
Animal grouping and administration method were the same as those in the tail suspension test in mice. The mice were placed in a round glass vessel with a height of 20 cm, an inner diameter of 12 cm, a water depth of 10 cm and a water temperature of 25° C.

[6] = incubation time 0 min, 1 μM, 1 mg/mL microsome, 37° C.

human MT2 receptor membrane protein, sequence (P49286 whole entry): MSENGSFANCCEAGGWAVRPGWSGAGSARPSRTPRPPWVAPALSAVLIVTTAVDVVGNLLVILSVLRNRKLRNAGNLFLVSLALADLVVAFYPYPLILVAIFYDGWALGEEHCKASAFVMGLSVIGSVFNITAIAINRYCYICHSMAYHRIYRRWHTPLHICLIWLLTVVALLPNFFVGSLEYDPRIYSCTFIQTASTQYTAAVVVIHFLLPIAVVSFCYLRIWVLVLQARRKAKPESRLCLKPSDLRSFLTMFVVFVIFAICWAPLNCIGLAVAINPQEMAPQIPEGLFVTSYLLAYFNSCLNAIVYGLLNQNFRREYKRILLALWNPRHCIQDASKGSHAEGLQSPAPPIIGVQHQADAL
human MT1 receptor membrane protein, sequence (P48039 whole entry): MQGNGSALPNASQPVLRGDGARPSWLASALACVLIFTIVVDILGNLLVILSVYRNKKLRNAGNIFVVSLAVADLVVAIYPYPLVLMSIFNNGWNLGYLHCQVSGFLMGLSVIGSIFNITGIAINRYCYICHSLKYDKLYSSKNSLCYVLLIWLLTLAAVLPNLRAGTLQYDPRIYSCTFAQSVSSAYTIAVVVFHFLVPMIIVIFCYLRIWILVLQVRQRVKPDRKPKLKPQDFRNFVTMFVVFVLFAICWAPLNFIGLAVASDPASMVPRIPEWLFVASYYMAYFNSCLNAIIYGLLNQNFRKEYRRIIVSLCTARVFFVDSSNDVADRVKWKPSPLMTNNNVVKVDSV

SMILES	melting point	Concentration measured at incubation time point [1, 6]	Concentration measured at incubation time point ([1]; incubation time 5 min)	Concentration measured at incubation time point ([1]; incubation time 15 min)	Concentration measured at incubation time point ([1]; incubation time 30 min)	Immobility time (Kunming mice [2])	MT1 binding ratio (I %) [3]	IC50 ([3]; rescreening)	Immobility time (SD rats)	MT2 binding ratio (I %) [4]	IC50 ([4]; rescreening)	Immobility time (Kunming mice [5])
COc1cc2c(CCNC(C)=O)cccc2cc1F [Example 4, N-(2-(6-fluoro-7-methoxy-naphthalen-1-yl)ethyl)acetamide]	140 to 144 °C	1001 ± 17 nM	601 ± 9 nM	48 ± 3 nM	11 ± 2 nM	76.6 ± 18.4 s	77%	0.23 ± 0.24 nM	71.4 ± 40.3 s	84%	0.67 ± 0.08 nM	75.6 ± 26.7 s
COc1cc2c(CCNC(C)=O)cccc2cc1Cl [Example 2, N-(2-(6-chloro-7-methoxy-naphthalen-1-yl)ethyl)acetamide]		1000 ± 36 nM	420 ± 79 nM	39 ± 3 nM		69.4 ± 23.3 s	84%		61.3 ± 29.8 s	78%		81.3 ± 20.3 s
CCC(=O)NCCc1cccc2cc(F)c(OC)cc12 [Example 7, N-(2-(6-fluoro-7-methoxy-naphthalen-1-yl)ethyl)propanamide]		1000 ± 35 nM	505 ± 33 nM	65 ± 7 nM			73%			69%		
[2H]C([2H])([2H])Oc1cc2c(CCNC(C)=O)cccc2cc1F [Example 3, N-(2-(6-fluoro-7-deuteromethoxy-naphthalen-1-yl)ethyl)acetamide]	141 to 144 °C	1000 ± 41 nM	395 ± 47 nM	29 ± 2 nM		77.7 ± 28.6 s	66%		76.1 ± 30.2 s	57%		83.3 ± 30.7 s
[2H]C([2H])([2H])Oc1cc2c(CCNC(=O)CC)cccc2cc1Cl [Example 5, N-(2-(6-chloro-7-deuteromethoxy-naphthalen-1-yl)ethyl)propanamide]		1000 ± 32 nM	675 ± 44 nM	116 ± 10 nM		68.8 ± 17.3 s	81%		66.2 ± 35.1 s	44%		96.4 ± 14.4 s
[2H]C([2H])([2H])Oc1ccc2cccc(CCNC(C)=O)c2c1 [d3-Ago, d3-Agomelatine, reference compound]		999 ± 103 nM	235 ± 22 nM	4 ± 3 nM								
CCC(=O)NCCc1cccc2cc(Cl)c(OC)cc12 [Example 6, N-(2-(6-chloro-7-methoxy-naphthalen-1-yl)ethyl)propanamide]		1000 ± 42 nM	471 ± 51 nM	56 ± 5 nM			77%			36%		
